Assay results published in PubChem BioAssay (NCI).
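Five concentrations, 48 hours, 96-well plates. The concentration for full growth arrest is given as TGI.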 Where a SMILES comes first, the peptide text is derived from it. Bridges are numbered along the chain shown (N, C = ends). [ ]: non-standard residue; d: D form. The star is where a group is joined. PhAc = O=C(Cc1ccccc1)*

What was measured:
Assay in all cases: NCI-60 cell line screen, 48 h
CAKI-1 renal = system: CAKI-1 renal
MDA-MB-231 breast = system: MDA-MB-231 breast
SN12C renal = system: SN12C renal
SF-539 CNS = system: SF-539 CNS
DU-145 prostate = system: DU-145 prostate
M14 melanoma = system: M14 melanoma
U251 CNS = system: U251 CNS
CCRF-CEM leukemia = system: CCRF-CEM leukemia
SK-OV-3 ovarian = system: SK-OV-3 ovarian
SF-295 CNS = system: SF-295 CNS
OVCAR-3 ovarian = system: OVCAR-3 ovarian
ACHN renal = system: ACHN renal
NCI-H522 lung = system: NCI-H522 lung
MCF7 breast = system: MCF7 breast
OVCAR-4 ovarian = system: OVCAR-4 ovarian
RXF 393 renal = system: RXF 393 renal
SNB-75 CNS = system: SNB-75 CNS
786-0 renal = system: 786-0 renal
HOP-62 NSCLC = system: HOP-62 NSCLC
HS 578T breast = system: HS 578T breast

SMILES	TGI (CAKI-1 renal) [µM]	TGI (MDA-MB-231 breast) [µM]	TGI (SN12C renal) [µM]	TGI (SF-539 CNS) [µM]	TGI (DU-145 prostate) [µM]	TGI (M14 melanoma) [µM]	TGI (U251 CNS) [µM]	TGI (CCRF-CEM leukemia) [µM]	TGI (SK-OV-3 ovarian) [µM]	TGI (SF-295 CNS) [µM]	TGI (OVCAR-3 ovarian) [µM]	TGI (ACHN renal) [µM]	TGI (NCI-H522 lung) [µM]	TGI (MCF7 breast) [µM]	TGI (OVCAR-4 ovarian) [µM]	TGI (RXF 393 renal) [µM]	TGI (SNB-75 CNS) [µM]	TGI (786-0 renal) [µM]	TGI (HOP-62 NSCLC) [µM]	TGI (HS 578T breast) [µM]
O=C(Nc1cc2c(=O)[nH]c3ccccc3c2oc1=O)c1cnccn1	> 100	> 100	> 100	> 100	> 100	> 100	> 100	> 100	> 100	> 100	> 100	> 100	> 100	> 100	> 100	> 100	> 100	> 100		
O=C(/C=C/c1ccc(O)c(O)c1)OCc1ccccc1	67.3	67.1	51.8	24.5	39.5	48.2	49.6		67.4	57.4	> 100	40.7	7.77	37.9	79.2	65.4		84.3	72.4	> 100
Cc1ccc2nc(N/N=C/c3ccc(C)s3)cc(C)c2c1	30.9	31.8	25.3	24.4	23	23.3	27.6		32.7	21.1	17.4	24.1	18.9	20	24.2	28.3		11.3	31.3	39.2
CCCCOCn1c(=O)[nH]c(=O)c2ccccc21	> 100	> 100	> 100	> 100	> 100	> 100	> 100	> 100	> 100	> 100	> 100	> 100		> 100	> 100	> 100	82.9	> 100		
O=C1CCCC2=C1CC1=C(CCCC1=O)N2c1ccccc1C(=O)O	> 100		> 100	> 100		> 100	> 100	> 100	> 100		> 100	> 100		> 100	> 100	> 100	> 100	> 100		> 100
O=C(Cc1ccccc1)N[C@@H]1COC(=O)[C@@H]2CCCN2C(=O)[C@@H]2CCCN2C1=O (PhAc-[dS]-Pro-Pro; ester 1-C)	> 100	> 100	> 100	> 100	> 100	> 100		> 100	> 100	> 100	> 100	> 100		> 100	> 100	> 100		> 100	> 100	> 100
Oc1cccc(-c2ccc3c4c2O[C@H]2c5[nH]c6ccccc6c5C[C@@]5(O)[C@@H](C3)N(CC3CC3)CC[C@]425)c1	3.41	4.03	3.04	3.14	3.36	3.07		10.4		3.21	3.42	3.67			2.96	2.63		2.97		3.55
Cc1ccc2c3c(cnc2n1)C(=O)OCCN3C	> 100	> 100	> 100	> 100	> 100	> 100	> 100	> 100		> 100	> 100	> 100	> 100	> 100	> 100	> 100		> 100	> 100	> 100
C=C1[C@H](OC(=O)C(C)C)[C@@H](OC(C)=O)[C@@H](OC(C)=O)C(C)(C)[C@@H]2O[C@H]2[C@@H](C)C(=O)[C@@]2(OC(C)=O)C[C@@](C)(OC(C)=O)[C@H](OC(C)=O)[C@@H]2[C@H]1OC(C)=O	> 100	> 100	> 100	> 100	> 100	> 100	> 100	> 100	> 100	> 100	> 100	> 100	> 100	> 100	> 100			> 100	> 100	> 100
C=CCc1c(C)nc(C)nc1N/N=C/C=C/c1ccccc1	> 100	> 100	> 100	> 100		> 100	61.3	> 100	> 100	52.9	53.3	> 100	> 100	65.3	0.18	47	91.6	> 100	38.8	> 100
CC1(C)C=Cc2c(cc3oc4ccc5c(c4c(=O)c3c2O)C=CC(C)(C)O5)O1	> 100	> 100	> 100	> 100	> 100	> 100	> 100	> 100	> 100	> 100	> 100	> 100	> 100	> 100	> 100	> 100		> 100	> 100	> 100
N#CC1(C#N)NC(c2cccnc2)C(C#N)(C#N)NC1c1cccnc1 (stereo unspecified)	> 100	> 100	> 100	> 100	> 100	> 100	> 100	> 100	> 100	> 100	> 100			> 100	> 100	> 100	> 100	> 100	> 100	
CC1(C)O[C@H]([C@H](O)c2nnc3ccc(Cl)nn23)[C@@H]([C@H]2COC(C)(C)O2)O1	> 100	> 100	> 100	> 100	> 100	> 100	> 100	> 100	> 100	> 100	> 100	> 100	> 100	> 100	> 100	> 100		> 100	> 100	> 100
Cc1[nH]n(C2=NCCN2)c(=O)c1C	> 100	> 100		> 100		> 100	> 100	> 100	> 100	> 100	> 100	> 100	> 100	> 100	> 100	> 100	> 100	> 100	> 100	> 100
c1ccc(CSc2ccccc2CN2CCN(Cc3ccccc3SCc3ccccc3)CCN(Cc3ccccc3SCc3ccccc3)CC2)cc1	11.3	3.16	3.36	3.54	12.3	2.93	2.08	> 100	6.34	2.45	1.82	10.7	1.76	3.32	3.38		4.18	3.01	3.82	
CCOC(=O)C(NC(=O)C(CCCCNP(=O)(OCC)OCC)NC(=O)C(C)NC(C)=O)C(C)C (stereo unspecified)	> 100	> 100	> 100	> 100	> 100	> 100	> 100	> 100		> 100	> 100	> 100		> 100	> 100	> 100	> 100	> 100	> 100	
CC(C)(C)OC(=O)[C@@H]1CCC(=S)N1Cc1ccccc1	> 100	> 100	> 100	> 100	> 100	> 100	> 100	> 100	> 100	> 100	> 100	> 100	> 100	> 100	> 100	> 100	> 100	> 100		
CN(C)C(=S)N1C(=S)N(c2ccccc2)C(=Nc2ccccc2)C1=Nc1ccccc1	> 100	> 100	> 100	> 100	> 100		> 100	> 100	> 100	> 100		> 100	> 100		> 100	> 100	> 100	> 100	> 100	> 100
CCSC1=N/C(=C\c2ccco2)C(NN)=N1	> 50	> 50	> 50	> 50	> 50	> 50	> 50	> 50	> 50	> 50	> 50	> 50	> 50			> 50	> 50	> 50	> 50	> 50
Cc1cc(N)ccc1N=Nc1ccc(S(=O)(=O)CCOS(=O)(=O)O)cc1	8.61		11.1	6.9	> 100	18.4	13.1	> 100		9.21	9.55	14.4	0.773	11.8	29	23.7	19.8	6.55	22.6	35.5
